According to ChEMBL document CHEMBL1201862, “PubChem BioAssay data set” (2004):
The source made the active and inactive calls.

Columns and labels:
[1] = P. falciparum Dd2 growth inhibitors, dose response, SYBR Green, dry powder samples, set 9 (AID 1159568); assay type: functional, cell-based
[2] = target: Mitogen-activated protein kinase 10 (Homo sapiens, UniProt P53779); assay: Dose response biochemical screening assay for inhibitors of c-Jun N-Terminal Kinase 3 (JNK3). [Related pubchem assays: 746 ]
[3] = target: T1, Aryl hydrocarbon receptor (Homo sapiens, UniProt P35869); assay: Luminescence-based cell-based high throughput dose response assay for activators of the Aryl Hydrocarbon Receptor (AHR). [Related pubchem assays: 2796 (Primary screen (AHR activators in singlicate)), 2845 (Confirmation screen (AHR activators in triplicate)), 434939 (Counterscreen (PXR activators in triplicate)), 2804 (Summary (AHR activators))]; assay type: ADME
T1 sequence (P35869 whole entry): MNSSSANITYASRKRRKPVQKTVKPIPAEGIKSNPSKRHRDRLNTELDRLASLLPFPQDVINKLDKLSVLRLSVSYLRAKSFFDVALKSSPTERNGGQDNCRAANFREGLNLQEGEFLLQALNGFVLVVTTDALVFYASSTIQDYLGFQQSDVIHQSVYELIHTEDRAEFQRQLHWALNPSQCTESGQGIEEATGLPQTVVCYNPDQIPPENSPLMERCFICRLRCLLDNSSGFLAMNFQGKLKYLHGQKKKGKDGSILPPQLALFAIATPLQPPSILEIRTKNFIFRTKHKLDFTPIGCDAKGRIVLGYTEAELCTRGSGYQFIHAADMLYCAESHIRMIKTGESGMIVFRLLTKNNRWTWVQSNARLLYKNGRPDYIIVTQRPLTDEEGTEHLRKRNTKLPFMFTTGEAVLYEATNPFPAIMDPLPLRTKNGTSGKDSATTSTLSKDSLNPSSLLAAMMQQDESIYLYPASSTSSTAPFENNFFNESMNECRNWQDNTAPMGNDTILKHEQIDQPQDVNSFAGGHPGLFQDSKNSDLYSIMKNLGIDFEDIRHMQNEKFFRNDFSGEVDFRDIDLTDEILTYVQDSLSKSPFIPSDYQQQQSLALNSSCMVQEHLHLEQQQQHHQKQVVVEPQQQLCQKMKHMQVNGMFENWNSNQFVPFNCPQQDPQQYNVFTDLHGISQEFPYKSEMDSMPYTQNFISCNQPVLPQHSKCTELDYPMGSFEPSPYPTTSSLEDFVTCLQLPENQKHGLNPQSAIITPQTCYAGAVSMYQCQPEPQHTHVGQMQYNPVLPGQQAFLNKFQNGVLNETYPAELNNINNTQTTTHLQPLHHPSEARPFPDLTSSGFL

[4] = P. falciparum late gametocyte killing, dose response, luminescence (AID 1117278); assay type: functional, cell-based;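 note: gametocytes exposed to compound for 24 hours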
[5] = Jurkat T cell cytotoxicity, dose response, cytotoxicity control for P. falciparum gametocyte viability project, luminescence (AID 1117277); assay type: functional, cell-based;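 note: potency reflects loss of cellular ATP meaning fewer viable cells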
[6] = target: T2, Tyrosine-protein phosphatase non-receptor type 7 (Homo sapiens, UniProt P35236); assay: inhibitors of human HePTP phosphatase, […], biochemical, absorbance, leukemia target (AID 521); assay type: functional
T2 sequence (P35236 whole entry): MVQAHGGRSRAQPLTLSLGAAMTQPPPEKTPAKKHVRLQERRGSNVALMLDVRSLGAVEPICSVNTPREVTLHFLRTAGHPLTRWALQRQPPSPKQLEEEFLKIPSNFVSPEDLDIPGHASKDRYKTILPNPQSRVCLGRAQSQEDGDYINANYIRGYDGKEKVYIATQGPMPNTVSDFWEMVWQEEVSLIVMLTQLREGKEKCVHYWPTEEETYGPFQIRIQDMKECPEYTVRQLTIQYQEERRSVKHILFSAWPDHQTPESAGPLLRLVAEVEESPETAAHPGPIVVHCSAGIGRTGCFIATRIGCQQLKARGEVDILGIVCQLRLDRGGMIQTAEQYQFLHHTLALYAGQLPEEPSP

[7] = target: T3, Corticotropin-releasing factor receptor 2/Corticotropin-releasing factor-binding protein (Homo sapiens, UniProt P24387+Q13324); assay: activators of CRF receptor 2 with binding protein – uHTS hits, confirmation (AID 602473); assay type: functional; conditions: read-out: EC50_Mean
T3 sequence (Q13324 whole entry): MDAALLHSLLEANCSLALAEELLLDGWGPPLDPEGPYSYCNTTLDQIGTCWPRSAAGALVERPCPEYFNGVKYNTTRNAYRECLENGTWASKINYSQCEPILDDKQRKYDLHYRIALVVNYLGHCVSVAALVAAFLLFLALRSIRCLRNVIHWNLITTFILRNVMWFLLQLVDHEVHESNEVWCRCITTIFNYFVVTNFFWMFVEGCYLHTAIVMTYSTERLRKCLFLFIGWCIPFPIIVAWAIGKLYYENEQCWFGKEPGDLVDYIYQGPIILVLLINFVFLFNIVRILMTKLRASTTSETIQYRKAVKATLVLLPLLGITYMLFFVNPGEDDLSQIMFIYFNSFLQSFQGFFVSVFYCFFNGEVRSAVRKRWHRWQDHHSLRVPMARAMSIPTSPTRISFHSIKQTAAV
T3 sequence (P24387 whole entry): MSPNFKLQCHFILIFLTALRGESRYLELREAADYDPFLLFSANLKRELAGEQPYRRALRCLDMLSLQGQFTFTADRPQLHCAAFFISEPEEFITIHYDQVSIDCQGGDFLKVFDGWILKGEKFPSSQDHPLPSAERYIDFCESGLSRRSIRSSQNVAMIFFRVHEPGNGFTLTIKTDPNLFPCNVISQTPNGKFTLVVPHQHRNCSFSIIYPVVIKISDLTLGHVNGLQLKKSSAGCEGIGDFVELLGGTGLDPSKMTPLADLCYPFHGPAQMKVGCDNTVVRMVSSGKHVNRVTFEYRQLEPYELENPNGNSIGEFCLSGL

[8] = MC4R antagonists, dose response, counter-screen for LGR2 antagonist project, cell-based, plate reader, cherry pick (AID 743444); assay type: functional;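 note: transfected HEK 293 cells stimulated with alpha-MSH peptide; potency of inhibitors of the alpha-MSH evoked signal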
[9] = HepG2 cell cytotoxicity, dose response, cytotoxicity control, plate reader, cherry-pick, antagonist series (AID 743416); assay type: functional, cell-based
[10] = A549 cell cytotoxicity, dose response, cytotoxicity control, plate reader, cherry-pick, antagonist series (AID 743412); assay type: functional, cell-based
BJ [11] = assay: cytotoxicity toward BJ-TERT-LT-ST fibroblasts, dose response, cell-based, RAS-independent, luminescence (AID 1935); assay type: functional; conditions: Homo sapiens;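 note: BJ fibroblasts immortalized with TERT plus LT and ST oncogenes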
HEK293 = assay: inhibitors of LMP1-driven NF-kB reporter, dose response, cell-based, HEK293, luciferase, cherry-pick (AID 588343); assay type: functional; conditions: Homo sapiens
[12] = HEK293 cell cytotoxicity, dose response, cytotoxicity control, plate reader, cherry-picked samples (AID 743446); assay type: functional, cell-based
HT-1080 = assay: cytotoxicity in HT1080 fibrosarcoma cells, cell-based, fluorescence readout (AID 620); assay type: functional; conditions: Homo sapiens
BJ [13] = assay: cells; assay type: functional, cell-based; conditions: Homo sapiens
[14] = target: T4, Oxysterols receptor LXR-beta (Homo sapiens, UniProt P55055); assay type: functional, cell-based;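 note: Cell-based luminescence dose-response assay of agonist activity at LXR, run as a confirmatory counterscreen to a daf-12 agonist screen; HEK293 cells with Gal4-LXR fusion and GAL4-driven luciferase reporter; agonist potency from rising luciferase signal of a Gal4-LXR reporter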
T4 sequence (P55055 whole entry): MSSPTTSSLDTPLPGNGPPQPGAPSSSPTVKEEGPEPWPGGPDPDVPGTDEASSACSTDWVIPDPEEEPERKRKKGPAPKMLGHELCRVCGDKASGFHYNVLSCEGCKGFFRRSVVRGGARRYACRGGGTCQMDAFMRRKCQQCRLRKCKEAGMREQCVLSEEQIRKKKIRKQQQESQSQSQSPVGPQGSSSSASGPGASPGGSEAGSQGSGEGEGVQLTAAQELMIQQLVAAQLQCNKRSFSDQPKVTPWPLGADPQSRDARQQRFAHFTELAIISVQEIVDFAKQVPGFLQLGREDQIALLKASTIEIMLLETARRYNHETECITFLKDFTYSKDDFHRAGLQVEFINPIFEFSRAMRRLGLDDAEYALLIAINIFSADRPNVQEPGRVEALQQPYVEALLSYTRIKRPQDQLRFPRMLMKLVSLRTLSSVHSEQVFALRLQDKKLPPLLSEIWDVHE

[15] = cytotoxicity toward DRD oncogenic fibroblasts, dose response, cell-based, non-viral oncogenic, luminescence (AID 1934); assay type: functional; conditions: Homo sapiens
[16] = LGR2 antagonists, dose response, cell-based, HEK293, CRE-luciferase reporter, cherry pick, set 2 (AID 743343); assay type: functional;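 note: transfected cells were stimulated with diluted bursicon conditioned medium after compound addition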
BJ [17] = assay: cytotoxicity toward BJ-TERT fibroblasts, dose response, cell-based, RAS-independent, luminescence (AID 1933); assay type: functional; conditions: Homo sapiens

Sequence of Mitogen-activated protein kinase 10 (P53779 whole entry): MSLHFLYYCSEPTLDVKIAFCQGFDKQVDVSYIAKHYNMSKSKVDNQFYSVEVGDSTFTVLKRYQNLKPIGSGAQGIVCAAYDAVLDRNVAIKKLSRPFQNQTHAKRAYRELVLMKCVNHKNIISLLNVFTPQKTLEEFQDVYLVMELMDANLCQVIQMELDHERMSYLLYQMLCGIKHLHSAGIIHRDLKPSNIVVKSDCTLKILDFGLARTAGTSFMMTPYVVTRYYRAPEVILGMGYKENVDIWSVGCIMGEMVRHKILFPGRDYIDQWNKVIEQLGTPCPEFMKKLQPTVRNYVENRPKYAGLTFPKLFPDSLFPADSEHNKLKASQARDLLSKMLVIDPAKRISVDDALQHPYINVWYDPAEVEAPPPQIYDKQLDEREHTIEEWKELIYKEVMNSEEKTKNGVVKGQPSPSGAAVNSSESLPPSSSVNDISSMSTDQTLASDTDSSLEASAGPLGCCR

O=C(Nc1ccccc1F)N1CCCCN2[C@H](CO)[C@H](c3ccc(/C=C/c4ccccc4)cc3)[C@H]2C1
AC50 [1]: 1.6 µM (active)

O=C(CNC(=O)c1ccc(Br)o1)Nc1cccc(-c2cnc3ccccc3n2)c1
IC50 [2]: 41.2 µM (not active)

O=C(/C=C\c1cccs1)c1c(O)ccc2ccc(=O)oc12
EC50 [3]: 3.41 µM (active)

CCC(C(=O)NCc1cccnc1)c1ccccc1 (stereo unspecified)
IC50 [4]: > 109 µM (inactive) | IC50 [5]: > 83.2 µM (inactive)

CN1CCc2c(sc3c2C(=O)NC(c2cccs2)N3)C1 (stereo unspecified)
IC50 [6]: > 100 µM (not active) | EC50 [7]: > 53 µM (inactive)

Cc1ccccc1-c1nc(-c2cccnc2)no1
EC50 [3]: 1.74 µM (active)

COc1ccccc1-c1nc(-c2ccccn2)no1
AC50 [8]: 2.05 µM (active) | AC50 [9]: 19.4 µM (active) | AC50 [10]: 10.4 µM (active) | EC50 (BJ [11]): > 150 µM (inconclusive) | AC50 (HEK293): 1.26 µM (active) | EC50 (cells): > 67.5 µM (inactive) | AC50 [12]: 10.7 µM (active) | EC50 (HT-1080): > 50 µM (not active) | EC50 (BJ [13]): 10.4 µM (active) | EC50 [14]: > 67.5 µM (inactive) | EC50 [15]: 7.2 µM (active) | AC50 [16]: 3.35 µM (active) | EC50 (BJ [17]): 9.58 µM (active)
